Experiments:
[1] = target: T1, aortic ACAT (Oryctolagus cuniculus, UniProt A0A5F9CPP4); experiment: Test A: measurement of the inhibition of aortic ACAT in vitro in rabbits; format: biochemical, male New Zealand rabbits; details: rabbit aortic microsomes, [^14 C]oleoylcoenzyme A, read-out: 50% inhibitory concentration (IC50), concentration of compound which inhibits the ACAT activity by 50%
T1 construct: the aorta is removed, dissected and homogenised in order to prepare the microsomal fraction by ultracentrifugation; from tissue; host or cells: aorta microsomes of cholesterol-fed male New Zealand rabbits
T1 sequence (A0A5F9CPP4 1-555): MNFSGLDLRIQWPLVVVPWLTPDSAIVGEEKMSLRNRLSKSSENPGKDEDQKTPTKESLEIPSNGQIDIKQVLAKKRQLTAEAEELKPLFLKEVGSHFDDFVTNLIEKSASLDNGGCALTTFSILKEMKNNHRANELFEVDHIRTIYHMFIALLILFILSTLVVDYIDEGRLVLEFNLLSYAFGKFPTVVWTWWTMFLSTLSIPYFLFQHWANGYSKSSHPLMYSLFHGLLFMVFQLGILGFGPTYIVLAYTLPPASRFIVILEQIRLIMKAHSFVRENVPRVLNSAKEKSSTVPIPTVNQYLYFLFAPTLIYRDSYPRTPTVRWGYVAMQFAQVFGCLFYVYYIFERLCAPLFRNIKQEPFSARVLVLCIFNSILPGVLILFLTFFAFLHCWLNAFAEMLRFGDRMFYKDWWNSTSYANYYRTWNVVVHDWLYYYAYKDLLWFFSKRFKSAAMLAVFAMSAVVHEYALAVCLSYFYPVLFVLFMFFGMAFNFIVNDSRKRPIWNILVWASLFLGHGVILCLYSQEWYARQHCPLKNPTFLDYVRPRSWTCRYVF
Procedure: Test A: measurement of the inhibition of aortic ACAT in vitro in rabbits; male New Zealand rabbits weighing between 2.2 and 2.5 kg, subjected beforehand for 15 days to a diet enriched with 1.25% of cholesterol, are sacrificed by cervical dislocation; the aorta is removed, dissected and homogenised in order to prepare the microsomal fraction by ultracentrifugation; these microsomes are incubated in the presence of [^14 C]oleoylcoenzyme A according to the method described by P. J. GILLIES et al., Exp. and Mol. Pathol., 1986, 44, 329-339; the lipids are extracted from the incubate with a methanol/chloroform mixture and the [^14 C]oleoylcholesterol is separated by TLC: the latter compound represents the measure of the ACAT activity, and the results are expressed in the form of a 50% inhibitory concentration (IC50), representing the concentration of compound which inhibits the ACAT activity by 50%.

[2] = test system: blood cholesterol level; experiment: Test B: measurement of the hypocholesterolaemic effect in rodents; format: in vivo, male Wistar rats; details: Rattus norvegicus; oral, cholesterol-fed rats (2.5% cholesterol, 8 days), 24 hours and 4 hours before sacrifice; read-out: 25% effective dose (ED25), quantity of compound which lowers the blood cholesterol level by 25%
Procedure: Test B: measurement of the hypocholesterolaemic effect in rodents; male Wistar rats weighing 200-220 g are subjected to a diet enriched with 2.5% of cholesterol for 8 days; on the last two days, they are treated orally with the test product, 24 hours and 4 hours before being sacrificed by exsanguination: the blood cholesterol level is evaluated on an aliquot fraction of serum by an automated enzymatic method. The results are expressed in the form of a 25% effective dose (ED25) in mg per kg of animal body weight, which represents the quantity of compound which lowers the blood cholesterol level by 25%.

[3] = test system: intestinal absorption of cholesterol; experiment: Test C: measurement of the inhibition of intestinal absorption of cholesterol in rats; format: in vivo, Wistar male rats; details: Rattus norvegicus; oral, fasted rats, Triton WR-1339 i.v., [^3 H]cholesterol orally; read-out: 50% effective dose (ED50), quantity of compound which inhibits intestinal absorption of cholesterol by 50%
Procedure: Test C: measurement of the inhibition of intestinal absorption of cholesterol in rats; Wistar male rats weighing 230-250 g, fasted for 24 hours, are treated simultaneously with the test product administered orally and with Triton WR-1339 administered i.v.; one hour later, they are treated again orally with [^3 H]cholesterol; three hours later, under ether anaesthesia, 1 ml of blood is withdrawn from their retro-orbital sinus: the blood radioactivity, evaluated on 0.1 ml of serum, represents the measure of the absorption of the [^3 H]cholesterol administered. The results are expressed in the form of a 50% effective dose (ED50) in mg per kg of animal body weight, which represents the quantity of compound which inhibits intestinal absorption of cholesterol by 50%.

- IC50 [1]: 160 nM
SMILES: CC(C)c1cccc(C(C)C)c1NC(=O)NCC1(n2ccc3cccnc32)CCCC1 [compound no. 1, N^1-[1-(7-azaindol-1-yl)cyclopentylmethyl]-N^2-(2,6-diisopropylphenyl)urea]
- ED25 [2]: 0.202 mg/kg
- ED50 [3]: 0.056 mg/kg

From patent publication US5338849A, “Azaindoles, preparation processes and medicinal products containing them” (Lipha, Lyonnaise Industrielle Pharmaceutique, priority 1992, dated 1994)
